Assays:
system Xc^− [1] = molecular target: T1, system Xc^− (Homo sapiens, UniProt Q9UPY5); assay: Cystine-induced glutamate release assay; assay type: cell-based; parameters: endogenous in cells; host or cells: H4 cells; settings: H4 cells, sodium-free HEPES buffer, 50 μM L-Cystine, 2 hours, Amplex Red glutamate readout; read-out: pIC50 Cystine-induced glutamate release assay (converted)
T1 sequence (Q9UPY5 1-501): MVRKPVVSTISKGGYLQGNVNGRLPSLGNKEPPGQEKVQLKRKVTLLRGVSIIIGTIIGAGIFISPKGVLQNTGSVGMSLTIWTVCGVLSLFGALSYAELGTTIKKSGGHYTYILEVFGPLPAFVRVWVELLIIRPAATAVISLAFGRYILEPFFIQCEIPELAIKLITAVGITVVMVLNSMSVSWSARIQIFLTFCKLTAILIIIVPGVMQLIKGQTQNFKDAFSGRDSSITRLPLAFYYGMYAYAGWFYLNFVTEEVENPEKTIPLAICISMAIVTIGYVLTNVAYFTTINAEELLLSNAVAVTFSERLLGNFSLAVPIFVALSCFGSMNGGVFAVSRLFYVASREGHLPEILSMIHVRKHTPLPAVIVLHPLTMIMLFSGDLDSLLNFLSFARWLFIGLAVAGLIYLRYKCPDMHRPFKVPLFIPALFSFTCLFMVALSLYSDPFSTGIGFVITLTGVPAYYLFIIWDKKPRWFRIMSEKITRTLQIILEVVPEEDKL
T1 sequence (P08195 1-529 partner): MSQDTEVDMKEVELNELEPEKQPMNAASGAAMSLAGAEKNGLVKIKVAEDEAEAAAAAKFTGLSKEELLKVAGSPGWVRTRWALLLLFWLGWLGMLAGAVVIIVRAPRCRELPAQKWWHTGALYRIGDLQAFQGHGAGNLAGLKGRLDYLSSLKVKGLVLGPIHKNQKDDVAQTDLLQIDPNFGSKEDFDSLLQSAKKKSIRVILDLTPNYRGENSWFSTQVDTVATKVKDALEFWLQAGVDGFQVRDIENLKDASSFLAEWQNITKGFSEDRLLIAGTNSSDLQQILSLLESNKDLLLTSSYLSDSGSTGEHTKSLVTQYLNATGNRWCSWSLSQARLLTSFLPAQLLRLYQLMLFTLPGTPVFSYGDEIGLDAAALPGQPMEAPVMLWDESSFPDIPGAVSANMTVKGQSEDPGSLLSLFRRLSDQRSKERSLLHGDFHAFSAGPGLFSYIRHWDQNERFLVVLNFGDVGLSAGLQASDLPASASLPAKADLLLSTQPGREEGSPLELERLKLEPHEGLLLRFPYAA
Method in brief: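 IC50 (reported as pIC50) normalized to DMSO 1% and Erastin 50 μM controls, from Amplex Red fluorescence of glutamate exported into supernatant. H4 cells were washed into sodium-free buffer to exclude EAAT transport, then given compound with 50 μM L-cystine for 2 h in the incubator.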

system Xc^− [2] = molecular target: T1, system Xc^−; assay: [^14C]L-Cystine uptake assay; assay type: cell-based; parameters: endogenous in cells; host or cells: H4 cells; settings: H4 cells, sodium-free HEPES buffer, 0.5 μM L-[14C]Cystine and 4.5 μM L-Cystine, 1 hour at 37° C.; read-out: pIC50 [^14C] L-Cystine uptake assay (converted)
Method in brief: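 Compound effect is given as pIC50, taken between controls of 1% DMSO and 50 μM Erastin. Human H4 cells were pretreated 15 min with compound in sodium-free buffer, then took up 0.5 μM [14C]cystine with 4.5 μM cold cystine for 1 hour at 37° C, read by scintillation proximity counting.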

SMILES | IC50 (system Xc^− [1]) [µM] | IC50 (system Xc^− [2]) [µM]
Cc1cc2c(c(F)n1)-c1cccnc1[C@@H](CO)C(=O)N2CC(=O)Nc1ccc(C(F)(F)F)cc1 (single isomer, unassigned) [#206, Enantiomer (10S) or (10R) of 2-[(3-fluoro-10-(hydroxymethyl)-5-methyl-9-oxo-4,8,12-triazatricyclo[9.4.0.0^2,7]pentadeca-1(11),2(7),3,5,12,14-hexaen-8-yl]-N-[4-(trifluoromethyl)phenyl]acetamide] | 0.0398 to 0.1 | < 0.0158
Cc1cc2c(cn1)-c1cc(Cl)ccc1CC(=O)N2CC(=O)Nc1ccc(C(F)(F)F)cc1 [#30, 2-(10-chloro-3-methyl-6-oxo-7H-pyrido[4,3-d][3]benzazepin-5-yl)-N-[4-(trifluoro-methyl)phenyl] acetamide] | 0.1 to 0.501 | < 0.0158
CC1C(=O)N(CC(=O)Nc2ccc(C(F)F)cc2)c2cc(N3CC4(COC4)C3)nc(F)c2-c2cccnc21 (single isomer, unassigned) [#284, N-[4-(difluoromethyl)phenyl]-2-[3-fluoro-10-methyl-5-(2-oxa-6-azaspiro[3.3]heptan-6-yl)-9-oxo-4,8,12-triazatricyclo[9.4.0.0^2,7]pentadeca-1(15),2,4,6,11,13-hexaen-8-yl]acetamide] | < 0.0158 | < 0.0158
Cc1cc2c(c(F)n1)-c1cccnc1[C@@H](C)C(=O)N2CC(=O)Nc1ccc(C2CC2)cc1 [#142, N-(4-cyclopropylphenyl)-2-[(10R)-3-fluoro-5,10-dimethyl-9-oxo-4,8,12-triazatricyclo[9.4.0.0^2,7]pentadeca-1(11),2(7),3,5,12,14-hexaen-8-yl]acetamide] | 0.0158 to 0.0398 | < 0.0158
Cc1cc(F)c2c(c1)N(CC(=O)Nc1ccc(C(F)F)cc1)C(=O)C(C)c1ncncc1-2 (stereo not shown) [#370, N-[4-(difluoromethyl)phenyl]-2-(11-fluoro-5,9-dimethyl-6-oxo-5H-pyrimido[4,5-d][1]benzazepin-7-yl)acetamide] | 0.0398 to 0.1 | 0.0398 to 0.1
Cc1cc2c(c(=O)n1C)-c1cncnc1C(C)C(=O)N2CC(=O)Nc1ccc(C(F)F)cc1 (single isomer, unassigned) [#367, N-[4-(difluoromethyl)phenyl]-2-[8,13,14-trimethyl-9,15-dioxo-4,6,10,14-tetrazatricyclo[9.4.0.0^2,7]pentadeca-1(11),2(7),3,5,12-pentaen-10-yl]acetamide] | 0.0158 to 0.0398 | 0.0158 to 0.0398
Cc1cc2c(c(F)n1)-c1ccc(F)cc1C(C)C(=O)N2CC(=O)Nc1ccc(Cl)c(F)c1 (stereo not shown) [#404, N-(4-chloro-3-fluoro-phenyl)-2-(1,9-difluoro-3,7-dimethyl-6-oxo-7H-pyrido[3,4-a][3]benzazepin-5-yl)acetamide] | 0.0158 to 0.0398 | 0.0398 to 0.1
[2H]C([2H])([2H])C1C(=O)N(CC(=O)Nc2ccc(C(F)(F)F)cc2)c2cc(C)nc(F)c2-c2cccnc21 (stereo not shown) [#92, 2-[3-fluoro-5-methyl-9-oxo-10-(trideuteriomethyl)-4,8,12-triazatricyclo[9.4.0.0^2,7]pentadeca-1(15),2(7),3,5,11,13-hexaen-8-yl]-N-[4-(trifluoromethyl)phenyl]acetamide] | 0.0398 to 0.1 | < 0.0158
COc1cc2c(c(C)n1)-c1cccnc1C(C)C(=O)N2CC(=O)Nc1ccc(C(F)F)cc1 (single isomer, unassigned) [#299, N-[4-(difluoromethyl)phenyl]-2-[5-methoxy-3,10-dimethyl-9-oxo-4,8,12-triazatricyclo[9.4.0.0^2,7]pentadeca-1(15),2(7),3,5,11,13-hexaen-8-yl]acetamide] | < 0.0158 | < 0.0158
O=C(CN1C(=O)C(CO)c2ncccc2-c2c(F)cc(Cl)cc21)Nc1ccc(Cl)c(F)c1 (single isomer, unassigned) [#382, 2-[9-chloro-11-fluoro-5-(hydroxymethyl)-6-oxo-5H-pyrido[2,3-d][1]benzazepin-7-yl]-N-(4-chloro-3-fluoro-phenyl)acetamide] | 0.0158 to 0.0398 | 0.0158 to 0.0398
CC1C(=O)N(CC(=O)Nc2ccc(Cl)c(F)c2)c2cc(C(F)F)ncc2-c2cc(F)cnc21 (single isomer, unassigned) [#348, N-(4-chloro-3-fluoro-phenyl)-2-[5-(difluoromethyl)-14-fluoro-10-methyl-9-oxo-4,8,12-triazatricyclo[9.4.0.0^2,7]pentadeca-1(15),2,4,6,11,13-hexaen-8-yl]acetamide] | 0.0158 to 0.0398 | < 0.0158
Cc1cc2c(c(Cl)n1)-c1cccnc1C(C)C(=O)N2CC(=O)Nc1ccc(C#N)cc1 (stereo not shown) [#115, 2-(3-chloro-5,10-dimethyl-9-oxo-4,8,12-triazatricyclo[9.4.0.0^2,7]pentadeca-1(11),2,4,6,12,14-hexaen-8-yl)-N-(4-cyanophenyl)acetamide] | 0.1 to 0.501 | 0.0398 to 0.1
Cc1cc2c(c(F)n1)-c1cccnc1[C@@H](C)C(=O)N2CC(=O)Nc1ccc(C2CC2)c(F)c1 [#144, N-(4-cyclopropyl-3-fluoro-phenyl)-2-[(10R)-3-fluoro-5,10-dimethyl-9-oxo-4,8,12-triazatricyclo[9.4.0.0^2,7]pentadeca-1(11),2(7),3,5,12,14-hexaen-8-yl]acetamide] | 0.0158 to 0.0398 | < 0.0158
Cc1cc2c(c(F)n1)-c1cccnc1[C@@H](C)C(=O)N2CC(=O)Nc1ccc(C(C)(F)F)c(F)c1 (single isomer, unassigned) [#236] | 0.0158 to 0.0398 | 0.0158 to 0.0398
CC1C(=O)N(CC(=O)Nc2ccc(Cl)c(F)c2)c2cc(C(F)F)ncc2-c2cccnc21 (single isomer, unassigned) [#342, N-(4-chloro-3-fluoro-phenyl)-2-[5-(difluoromethyl)-10-methyl-9-oxo-4,8,12-triazatricyclo[9.4.0.0^2,7]pentadeca-1(15),2,4,6,11,13-hexaen-8-yl]acetamide] | < 0.0158 | < 0.0158
COc1cc2c(c(Cl)n1)-c1ccnn1C(C)C(=O)N2CC(=O)Nc1ccc(Cl)c(F)c1 (single isomer, unassigned) [#387, N-(4-chloro-3-fluoro-phenyl)-2-[14-chloro-12-methoxy-7-methyl-8-oxo-5,6,9,13-tetrazatricyclo[8.4.0.0^2,6]tetradeca-1(10),2,4,11,13-pentaen-9-yl]acetamide] | 0.0158 to 0.0398 | 0.0158 to 0.0398
CC1C(=O)N(CC(=O)Nc2ccc(C(F)F)cc2)c2cc(N3CC4(CC4)C3)nc(F)c2-c2cccnc21 (single isomer, unassigned) [#283, 2-[5-(5-azaspiro[2.3]hexan-5-yl)-3-fluoro-10-methyl-9-oxo-4,8,12-triazatricyclo[9.4.0.0^2,7]pentadeca-1(15),2,4,6,11,13-hexaen-8-yl]-N-[4-(difluoromethyl)phenyl]acetamide] | < 0.0158 | 0.0158 to 0.0398
Cc1cc2c(c(F)n1)-c1ccnn1C(C)C(=O)N2CC(=O)Nc1ccc(C(F)(F)F)cc1 (stereo not shown) [#111, 2-(14-fluoro-7,12-dimethyl-8-oxo-5,6,9,13-tetrazatricyclo[8.4.0.0^2,6]tetradeca-1(10),2,4,11,13-pentaen-9-yl)-N-[4-(trifluoromethyl)phenyl]acetamide] | 0.1 to 0.501 | 0.0398 to 0.1
Cc1cc2c(c(Cl)n1)-c1cccnc1C(C)C(=O)N2CC(=O)Nc1ccc(C(F)(F)F)cc1 (stereo not shown) [#114, 2-(3-chloro-5,10-dimethyl-9-oxo-4,8,12-triazatricyclo[9.4.0.0^2,7]pentadeca-1(11),2,4,6,12,14-hexaen-8-yl)-N-[4-(trifluoromethyl)phenyl]acetamide] | 0.0158 to 0.0398 | < 0.0158
Cc1cc2c(cn1)-c1cccnc1C(C)C(=O)N2CC(=O)Nc1ccc(C(F)F)c(F)c1 (single isomer, unassigned) [#252, N-[4-(difluoromethyl)-3-fluoro-phenyl]-2-[5,10-dimethyl-9-oxo-4,8,12-triazatricyclo[9.4.0.0^2,7]pentadeca-1(15),2,4,6,11,13-hexaen-8-yl]acetamide] | < 0.0158 | 0.0158 to 0.0398

From US20260217708A1, “FUSED BENZAZEPINE DERIVATIVES FOR USE IN THE TREATMENT OF CANCER AND EPILEPSY” (UCB BIOPHARMA SRL, priority 2023, published 2026)
